Experimental data: publication PMC9169622 (Proceedings of the National Academy of Sciences of the …, 2022)
Numbering of substitutions follows the chain as printed. Values joined by “and” are separate entries in the source; they are usually repeats but may differ in a detail not shown here. Equal entries are not always repeated.

Columns and labels:
GPR126 [1] = molecular target: T1, GPR126 (Homo sapiens, UniProt Q86SQ4); assay: cell-based; assay type: cell-based
T1 sequence (Q86SQ4 38-1221): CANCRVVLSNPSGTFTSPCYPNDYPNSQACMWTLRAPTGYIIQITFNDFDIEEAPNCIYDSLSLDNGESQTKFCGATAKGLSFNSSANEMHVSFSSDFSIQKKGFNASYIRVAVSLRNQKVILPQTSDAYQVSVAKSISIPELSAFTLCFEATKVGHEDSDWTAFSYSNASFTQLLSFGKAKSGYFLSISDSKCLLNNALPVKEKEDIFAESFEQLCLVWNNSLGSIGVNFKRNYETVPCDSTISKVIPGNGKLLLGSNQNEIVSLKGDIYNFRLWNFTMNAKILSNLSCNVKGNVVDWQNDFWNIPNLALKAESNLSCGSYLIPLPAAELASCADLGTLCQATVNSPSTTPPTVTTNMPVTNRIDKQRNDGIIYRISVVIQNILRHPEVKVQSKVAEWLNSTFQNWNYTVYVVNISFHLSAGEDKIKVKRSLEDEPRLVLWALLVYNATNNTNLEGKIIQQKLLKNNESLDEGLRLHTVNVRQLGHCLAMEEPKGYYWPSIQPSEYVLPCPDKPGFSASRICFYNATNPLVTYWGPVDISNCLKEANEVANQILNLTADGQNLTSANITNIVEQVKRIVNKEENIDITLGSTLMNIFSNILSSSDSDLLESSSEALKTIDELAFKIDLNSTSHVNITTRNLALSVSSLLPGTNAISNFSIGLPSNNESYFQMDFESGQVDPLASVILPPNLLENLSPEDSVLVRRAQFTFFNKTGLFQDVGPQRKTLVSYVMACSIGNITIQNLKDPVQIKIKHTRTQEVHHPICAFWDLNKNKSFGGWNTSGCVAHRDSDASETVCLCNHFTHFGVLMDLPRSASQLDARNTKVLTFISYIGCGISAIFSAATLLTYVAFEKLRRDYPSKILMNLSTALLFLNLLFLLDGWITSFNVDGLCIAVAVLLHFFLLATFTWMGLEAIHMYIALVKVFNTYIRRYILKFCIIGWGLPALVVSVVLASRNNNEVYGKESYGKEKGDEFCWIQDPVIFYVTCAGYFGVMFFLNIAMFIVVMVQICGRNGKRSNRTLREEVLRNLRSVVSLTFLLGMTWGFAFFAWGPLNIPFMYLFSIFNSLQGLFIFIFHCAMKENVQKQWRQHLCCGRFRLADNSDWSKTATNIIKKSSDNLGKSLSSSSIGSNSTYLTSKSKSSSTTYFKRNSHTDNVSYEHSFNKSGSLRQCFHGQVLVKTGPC

GPR126 [2] = molecular target: T1, GPR126; assay type: cell-based
MDA-MB-231 cells [3] = assay type: cell-based, human
MDA-MB-231 cells [4] = assay: Colony formation assay; assay type: cell-based, human
MDA-MB-231 cells [5] = assay: Nude mouse xenograft model; assay type: in vivo, nude mice; conditions: 15 mg/kg i.p. every 3 d
GPR126 [6] = molecular target: T1, GPR126; conditions: angiotensin II and AT1R as controls
GPR126-β = molecular target: T2, GPR126-β (Homo sapiens, UniProt Q86SQ4); assay: GloSensor cAMP inhibition assay, GPR126-β construct; assay type: cell-based
T2 sequence (Q86SQ4 841-1221 limits assumed): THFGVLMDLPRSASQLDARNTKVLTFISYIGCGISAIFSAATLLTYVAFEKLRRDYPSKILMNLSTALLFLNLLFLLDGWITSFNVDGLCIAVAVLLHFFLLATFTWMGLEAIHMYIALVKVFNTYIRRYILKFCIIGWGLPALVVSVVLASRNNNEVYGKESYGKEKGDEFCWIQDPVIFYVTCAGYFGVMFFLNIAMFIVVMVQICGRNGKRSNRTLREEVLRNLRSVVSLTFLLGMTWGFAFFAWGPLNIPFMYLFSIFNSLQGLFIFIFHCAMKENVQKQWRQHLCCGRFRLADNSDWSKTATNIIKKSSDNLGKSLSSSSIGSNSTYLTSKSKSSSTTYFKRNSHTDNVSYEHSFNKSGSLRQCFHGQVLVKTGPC

SRC = assay: Western blot of p-SRC Y416, p-AKT S473, p-ERK T202/Y204; assay type: cell-based, human; conditions: 10 nM
GPR126 [7] = assay type: cell-based, human
GPR126 [8] = molecular target: T1, GPR126; conditions: angiotensin II and AT1R as controls; remark: listed apart in the source
full-length GPR126 [9] = molecular target: T3, full-length GPR126 (Homo sapiens, UniProt Q86SQ4, R1057Q); assay: cell-based; assay type: cell-based
T3 sequence (Q86SQ4 38-1221 R1057Q): T1 sequence (Q86SQ4 38-1221) with R1020Q

full-length GPR126 [10] = molecular target: T4, full-length GPR126 (Homo sapiens, UniProt Q86SQ4); assay: cell-based; assay type: cell-based
T4 sequence (Q86SQ4 38-1221): T1 sequence (Q86SQ4 38-1221)

full-length GPR126 [11] = assay: cell-based; assay type: cell-based, human
PAQR8 = molecular target: T5, PAQR8 (Homo sapiens, UniProt Q8TEZ7); assay: GloSensor cAMP inhibition assay in HEK293 cells overexpressing PAQR8; assay type: cell-based; conditions: similar plasma membrane expression levels
T5 sequence (Q8TEZ7 1-354): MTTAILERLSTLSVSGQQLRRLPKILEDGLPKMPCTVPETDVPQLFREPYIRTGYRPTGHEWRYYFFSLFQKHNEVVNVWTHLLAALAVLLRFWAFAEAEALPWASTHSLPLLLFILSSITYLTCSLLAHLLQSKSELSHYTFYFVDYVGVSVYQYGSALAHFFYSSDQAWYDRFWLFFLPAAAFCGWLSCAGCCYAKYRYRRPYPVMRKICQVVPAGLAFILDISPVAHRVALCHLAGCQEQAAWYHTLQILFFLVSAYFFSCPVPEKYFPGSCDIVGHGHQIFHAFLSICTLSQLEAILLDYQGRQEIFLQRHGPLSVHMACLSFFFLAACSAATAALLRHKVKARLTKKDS

[12] = Plasma progesterone level after intraperitoneal injection; assay type: in vivo, nude mice
PAQR7 = molecular target: T6, PAQR7 (Homo sapiens, UniProt Q86WK9); assay: GloSensor cAMP inhibition assay in HEK293 cells overexpressing PAQR7; assay type: cell-based; conditions: similar plasma membrane expression levels
T6 sequence (Q86WK9 1-346): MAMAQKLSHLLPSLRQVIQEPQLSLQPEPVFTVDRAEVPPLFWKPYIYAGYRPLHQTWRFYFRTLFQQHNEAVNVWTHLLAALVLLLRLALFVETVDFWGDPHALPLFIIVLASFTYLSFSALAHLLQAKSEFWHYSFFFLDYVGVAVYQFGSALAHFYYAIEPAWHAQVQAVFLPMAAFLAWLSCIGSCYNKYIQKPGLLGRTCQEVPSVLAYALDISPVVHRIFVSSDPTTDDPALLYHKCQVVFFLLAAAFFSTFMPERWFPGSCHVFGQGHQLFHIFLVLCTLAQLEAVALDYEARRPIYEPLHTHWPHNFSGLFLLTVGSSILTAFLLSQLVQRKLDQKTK

C[C@]12CCC(=O)C=C1CC[C@@H]1[C@@H]2CC[C@@]2(C)[C@H]1CC[C@]2(O)C(=O)CO [11-deoxycortisol]
EC50 (GPR126 [1]): 1400 ± 140 nM | Emax compared with 126-SMP, cAMP accumulation (GPR126 [1]): less than one-sixth | effect on intracellular cAMP accumulation (GPR126 [1]): weak but detectable increase

C=C[C@@]1(C)CC(=O)[C@]2(O)[C@@]3(C)[C@@H](O)CCC(C)(C)[C@@H]3[C@H](O)[C@H](OC(C)=O)[C@@]2(C)O1 [Fsk, Forskolin]
cAMP up-regulation compared to control vehicle (GPR126 [2]): approximately three times

COc1cc2ncnc(Nc3ccc(Oc4ccccc4)cc3)c2cc1OC [Src-I1]
effect of SRC inhibitor on progesterone-induced cell growth (MDA-MB-231 cells [3]): significantly suppressed

CC(=O)[C@H]1CC[C@H]2[C@@H]3CCC4=CC(=O)CC[C@]4(C)[C@H]3CC[C@]12C [progesterone]
colony number and size in Sh-CTRL cells (MDA-MB-231 cells [4]; MDA-MB-231 Sh-CTRL, 10 nM): increase | increase in colony number and size after GPR126 knockdown (MDA-MB-231 cells [4]; MDA-MB-231 Sh-GPR126, 10 nM): largely abolished | rates of mouse weight gain between groups (MDA-MB-231 cells [5]): not significantly different | tumor growth in the Sh-CTRL group (MDA-MB-231 cells [5]; 32 d): significantly enhanced | tumor growth in the Sh-GPR126-1 group (MDA-MB-231 cells [5]; 32 d): minimal effects | size and weight of tumors in the Sh-CTRL group (MDA-MB-231 cells [5]; after 32 d): significantly increased | size and weight of tumors in the Sh-GPR126-1 group (MDA-MB-231 cells [5]; after 32 d): no significant effects | β-arrestin-2 recruitment of GPR126 (GPR126 [6]): no obvious | EC50 for GPR126-β lower than that of full-length GPR126 (GPR126-β): ~10 fold | p-SRC Y416 level, F1085A or W1081A overexpressed in GPR126-silenced cells (SRC; 5 min): failed to increase | pY416 SRC phosphorylation, GPR126 wild-type or L937A overexpressed in GPR126-silenced cells (SRC; 5 min): able to promote | time of maximum phosphorylation after treatment (SRC; MDA-MB-231 cells): 5 min | phosphorylation of SRC at Y416, p-AKT S473 and p-ERK T202/Y204 (SRC; MDA-MB-231 cells, time-dependent): promoted | BRET signal between Nluc-N terminus and FlAsH-labeled S1 site of ECL1 (GPR126 [7]): increase | GPR126 response with mutation of F1085 (GPR126 [7]): impaired | extracellular conformational change of GPR126 with K1001 or F1012 mutated to Ala (GPR126 [7]): no significant effects | BRET signal between Nluc-tagged N terminus and FlAsH-labeled ECL2 (GPR126 [7]; concentration-dependent): significant increase | Gs coupling of GPR126 (GPR126 [1]): not detectable | growth of GPR126-silenced cells overexpressing wild-type GPR126 or L937A (MDA-MB-231 cells [3]): significantly promoted | growth promotion in GPR126-silenced cells overexpressing W1081A or F1085A (MDA-MB-231 cells [3]): significantly attenuated | increase in growth rate of Sh-CTRL cells (MDA-MB-231 cells [3]): approximately twofold | induced cell growth in GPR126-silenced cells overexpressing R1057Q (MDA-MB-231 cells [3]): inhibited | proliferation-promoting effect in GPR126-silenced cells (MDA-MB-231 cells [3]): attenuated | Gq activity of GPR126 (GPR126 [8]): no obvious | potency in cAMP inhibition assay with GPR126 R1057Q mutant (full-length GPR126 [9]): decreased the potency | able to inhibit Fsk-induced cAMP accumulation (full-length GPR126 [10]): able to inhibit | EC50 (full-length GPR126 [10]; EC50, cAMP inhibition, full-length GPR126): 540 nM and ~540 nM | GPR126 activity in cAMP inhibition assay with Ala mutants (full-length GPR126 [11]): significantly impaired | cAMP levels in GPR126 knocking down cells (GPR126 [2]): no significant effects | cAMP levels induced by Fsk in GPR126-expressing cells (GPR126 [2]): inhibited | activation of PAQR8 stronger than GPR126 (potency) (PAQR8): ~100 fold | efficacy at PAQR8 compared with GPR126 (PAQR8): significant lower efficacy | maximum plasma concentration ([12]; mice, 15 mg/kg intraperitoneal injection): 151 nM | steady plasma level ([12]; mice, 15 mg/kg intraperitoneal injection, from 8 h): 4.547 nM | Tmax ([12]; nude, mouse, plasma, ip, 15 mg/kg): ~1 h | activation of PAQR7 stronger than GPR126 (potency) (PAQR7): ~100 fold | efficacy at PAQR7 compared with GPR126 (PAQR7): significant lower efficacy

C[C@]12CC[C@H]3[C@@H](CCC4=CC(=O)CC[C@@]43C)[C@@H]1CC[C@@H]2O [testosterone]
EC50 (GPR126 [1]): 800 ± 60 nM | Emax compared with 126-SMP, cAMP accumulation (GPR126 [1]): less than one-sixth | effect on intracellular cAMP accumulation (GPR126 [1]): weak but detectable increase
